Reference: the NIST ThermoML archive (doi:10.1021/je049711t)
Numbers after ± are expanded uncertainties.

Test: refractive index (Na D-line) (dimensionless)
Settings: 293.15 K; 101.33 kPa; Liquid; Standard Abbe refractometry

Row | refractive index | SMILES
1 | 1.3772 ± 0.0008 | CC(=O)OC(C)C [1-methylethyl ethanoate]
2 | 1.333 ± 0.0008 | O [water]
3 | 1.3719 ± 0.0007 | CC(=O)O [acetic acid]
4 | 1.4021 ± 0.0008 | CCCCCOC(C)=O [pentyl ethanoate]
